Assay results: PubChem BioAssay AID256 (DTP/NCI, 2004)
Values joined by “and” are separate entries in the source; they are usually repeats but may differ in a detail not shown here. Equal entries are not always repeated. Toxic doses and inconclusive results are not listed.

Test system: CD2F1 mice, L1210 leukemia ip, survival T/C
Test: NCI In Vivo Anticancer Drug Screen. Data for tumor model L1210 Leukemia (intraperitoneal) in CD2F1 (CDF1) mice
Conditions: higher = longer survival
In short: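 Vehicle-treated tumor-bearing mice served as controls (C) for compound-treated mice (T). Reported figure is T divided by C.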

[1] = endpoint: mean survival time, dose: 25.0 mg/kg/injection, schedule: Q01DX009 (ip), vehicle: saline with Tween-80
[2] = endpoint: mean survival time, dose: 50.0 mg/kg/injection, schedule: Q01DX009 (ip), vehicle: saline with Tween-80
[3] = endpoint: mean survival time, dose: 100.0 mg/kg/injection, schedule: Q01DX009 (ip), vehicle: saline with Tween-80
[4] = endpoint: mean survival time, dose: 200.0 mg/kg/injection, schedule: Q01DX009 (ip), vehicle: saline with Tween-80
[5] = endpoint: mean survival time, dose: 400.0 mg/kg/injection, schedule: Q01DX009 (ip), vehicle: saline with Tween-80

## O=C1OC(c2ccccc2)(c2ccccc2)C(=O)N1c1ccc(Br)cc1
endpoint: median survival time, dose: 3.13 mg/kg/injection, schedule: Q04DX002 (ip), vehicle: saline with Tween-80
  T/C: 100 % of control
endpoint: median survival time, dose: 6.25 mg/kg/injection, schedule: Q04DX002 (ip), vehicle: saline with Tween-80
  T/C: 100 % of control
endpoint: median survival time, dose: 12.5 mg/kg/injection, schedule: Q04DX002 (ip), vehicle: saline with Tween-80
  T/C: 111 % of control
endpoint: median survival time, dose: 25.0 mg/kg/injection, schedule: Q04DX002 (ip), vehicle: saline with Tween-80
  T/C: 111 % of control
endpoint: median survival time, dose: 25.0 mg/kg/injection, schedule: Q04DX003 (ip), vehicle: saline with Tween-80
  T/C: 94 % of control

## N#Cc1[nH]nc2ncnc(N)c12
endpoint: mean survival time, dose: 6.25 mg/kg/injection, schedule: Q01DX009 (ip), vehicle: saline with Tween-80
  T/C: 100 % of control
endpoint: mean survival time, dose: 12.5 mg/kg/injection, schedule: Q01DX009 (ip), vehicle: saline with Tween-80
  T/C: 100 % of control
[1]
  T/C: 93 % of control
[2]
  T/C: 91 % of control and 98 % of control

## CCCCCCCCCCCCCCCC(=O)NCCN(CC)CC
[1]
  T/C: 95 % of control
[2]
  T/C: 98 % of control
endpoint: mean survival time, dose: 75.0 mg/kg/injection, schedule: Q04DX003 (ip), vehicle: saline with Tween-80
  T/C: 97 % of control
endpoint: mean survival time, dose: 150.0 mg/kg/injection, schedule: Q01DX001 (ip), vehicle: saline
  T/C: 98 % of control

## Cc1ccc(NC(=O)Nc2ccccc2C(N)=O)cc1[N+](=O)[O-]
[2]
  T/C: 94 % of control
[3]
  T/C: 98 % of control

## Cc1cc(=O)ncn1C
endpoint: mean survival time, dose: 100.0 mg/kg/injection, schedule: Q04DX002 (ip), vehicle: saline
  T/C: 101 % of control
endpoint: mean survival time, dose: 200.0 mg/kg/injection, schedule: Q04DX002 (ip), vehicle: saline
  T/C: 97 % of control
endpoint: mean survival time, dose: 400.0 mg/kg/injection, schedule: Q04DX002 (ip), vehicle: saline
  T/C: 101 % of control

## CCCCCCCCOC(=O)c1c(Cl)c(Cl)c(C(=O)OCCCCCCCC)c(Cl)c1Cl
[3]
  T/C: 98 % of control
endpoint: mean survival time, dose: 100.0 mg/kg/injection, schedule: Q04DX003 (ip), vehicle: saline with Tween-80
  T/C: 97 % of control
[4]
  T/C: 102 % of control
endpoint: mean survival time, dose: 200.0 mg/kg/injection, schedule: Q04DX003 (ip), vehicle: saline with Tween-80
  T/C: 97 % of control
[5]
  T/C: 96 % of control
endpoint: mean survival time, dose: 400.0 mg/kg/injection, schedule: Q04DX003 (ip), vehicle: saline with Tween-80
  T/C: 97 % of control

## Cc1ccc([N+](=O)[O-])cc1NC(=O)NNC(=O)CNC(=O)Nc1cccc(C(F)(F)F)c1
[3]
  T/C: 92 % of control
[4]
  T/C: 89 % of control
[5]
  T/C: 96 % of control

## CCOc1nc2nc[nH]c(=O)c2cc1C#N
endpoint: mean survival time, dose: 12.5 mg/kg/injection, schedule: Q04DX002 (ip), vehicle: saline with Tween-80
  T/C: 90 % of control
endpoint: mean survival time, dose: 25.0 mg/kg/injection, schedule: Q04DX002 (ip), vehicle: saline with Tween-80
  T/C: 93 % of control
endpoint: mean survival time, dose: 50.0 mg/kg/injection, schedule: Q04DX002 (ip), vehicle: saline with Tween-80
  T/C: 104 % of control
endpoint: mean survival time, dose: 100.0 mg/kg/injection, schedule: Q01DX001 (ip), vehicle: saline with Tween-80
  T/C: 107 % of control
endpoint: mean survival time, dose: 200.0 mg/kg/injection, schedule: Q01DX001 (ip), vehicle: saline with Tween-80
  T/C: 95 % of control

## O=C(O)Cc1ccc(Cl)cc1[N+](=O)[O-]
endpoint: mean survival time, dose: 100.0 mg/kg/injection, schedule: Q01DX001 (ip), vehicle: other
  T/C: 113 % of control
endpoint: mean survival time, dose: 200.0 mg/kg/injection, schedule: Q01DX001 (ip), vehicle: other
  T/C: 107 % of control
endpoint: mean survival time, dose: 400.0 mg/kg/injection, schedule: Q01DX001 (ip), vehicle: other
  T/C: 98 % of control

## CN(N=O)C(N)=O
endpoint: mean survival time, dose: 5.0 mg/kg/injection, schedule: Q03DX003 (ip), vehicle: saline
  T/C: 112 % of control
endpoint: mean survival time, dose: 5.0 mg/kg/injection, schedule: Q04DX003 (ip), vehicle: saline
  T/C: 117 % of control
endpoint: mean survival time, dose: 10.0 mg/kg/injection, schedule: Q01DX007 (ip), vehicle: saline
  T/C: 166 % of control
endpoint: mean survival time, dose: 10.0 mg/kg/injection, schedule: Q01DX009 (ip), vehicle: saline
  T/C: 175 % of control
endpoint: mean survival time, dose: 20.0 mg/kg/injection, schedule: Q01DX007 (ip), vehicle: saline
  T/C: 124 % of control
endpoint: mean survival time, dose: 20.0 mg/kg/injection, schedule: Q03DX003 (ip), vehicle: saline
  T/C: 156 % of control
endpoint: median survival time, dose: 12.0 mg/kg/injection, schedule: Q01DX009 (ip), vehicle: saline + alcohol
  T/C: 172 % of control
endpoint: median survival time, dose: 14.0 mg/kg/injection, schedule: Q04DX003 (ip), vehicle: saline
  T/C: 113 % of control
endpoint: median survival time, dose: 14.0 mg/kg/injection, schedule: Q07DX003 (ip), vehicle: saline + alcohol
  T/C: 106 % of control
endpoint: median survival time, dose: 20.0 mg/kg/injection, schedule: Q07DX003 (ip), vehicle: saline + alcohol
  T/C: 118 % of control
endpoint: median survival time, dose: 26.0 mg/kg/injection, schedule: Q07DX003 (ip), vehicle: saline + alcohol
  T/C: 116 % of control
endpoint: median survival time, dose: 33.0 mg/kg/injection, schedule: Q07DX003 (ip), vehicle: saline + alcohol
  T/C: 123 % of control
endpoint: median survival time, dose: 36.0 mg/kg/injection, schedule: Q04DX003 (ip), vehicle: saline + alcohol
  T/C: 151 % of control
endpoint: median survival time, dose: 40.0 mg/kg/injection, schedule: Q04DX003 (ip), vehicle: saline
  T/C: 160 % of control
endpoint: median survival time, dose: 50.0 mg/kg/injection, schedule: Q01DX009 (ip), vehicle: saline + alcohol
  T/C: 107 % of control
endpoint: median survival time, dose: 60.0 mg/kg/injection, schedule: Q04DX003 (ip), vehicle: saline + alcohol
  T/C: 157 % of control
endpoint: median survival time, dose: 67.0 mg/kg/injection, schedule: Q04DX003 (ip), vehicle: saline
  T/C: 167 % of control
endpoint: median survival time, dose: 100.0 mg/kg/injection, schedule: Q04DX003 (ip), vehicle: saline + alcohol
  T/C: 97 % of control
